Assay type in all cases: in vivo
The subject of data set [1] is Zea mays for feed. Briefly: Test Example 3: spraying onto shoots, herbicidal index (crop). The settings on record: sprayed onto shoots (crop, shoot height 20 to 30 cm), three weeks after the treatment. How it is done: (§1) An emulsifiable concentrate for test was prepared in the same manner as that described in Test Example 1.
(§2) Seeds of each of Zea mays for feed, Alopecurus myosuroides, Lolium multiflorum, Avena sativa, Digitaria ciliaris, Setaria faberi, Abutilon theophrasti, and Amaranthus retroflexus were placed in a surface layer of soil filled in a pot with a size of 150 cm^2 and then lightly covered with soil. Subsequently, the pots were kept in a greenhouse to allow the plants to grow. When each of Alopecurus myosuroides, Lolium multiflorum, Avena sativa, Digitaria ciliaris, Setaria faberi, Abutilon theophrasti, and Amaranthus retroflexus grew to a shoot height ranging from 2 to 4 cm, and Zea mays for feed grew to a shoot height ranging from 20 to 30 cm, the emulsifiable concentrate mentioned above was diluted with water so as to have a specified amount of the active ingredient, and then sprayed onto the shoot parts by means of a small-sized sprayer at an application rate of 250 L of water per hectare.
(§3) Three weeks after the treatment, the weight of the shoot part of the alive plant in the untreated plot and the treated plot with respect to each plant was measured. The herbicidal index was calculated according to the calculation expression described below.
(§4) (4) Calculation Expression for Herbicidal Index Herbicidal index (%)=[(Weight of the shoot part of the alive plant in the untreated plot−Weight of the shoot part of the alive plant in the treated plot)/(Weight of the shoot part of the alive plant in the untreated plot)]×100
(§5) A diluted emulsifiable concentrate of the compound of A-2 was sprayed at a dosage of 250 g or 63 g of the compound per hectare.
(§6) In addition, with respect to the compound (A) described in Patent Document 1, the same application as described above was carried out.

In data set [2] the test system is Zea mays for feed. Briefly: Test Example 2: tests of treating shoots, herbicidal index (crop). To be noted: 63 g/ha, sprayed onto shoots (crop, shoot height 20 to 30 cm), four weeks after the treatment. The method, then:
as §1
(§7) Seeds of each of Lolium multiflorum, Digitaria ciliaris, and Zea mays for feed were placed in a surface layer of soil filled in a pot with a size of 150 cm^2 and then lightly covered with soil. Subsequently, the pots were kept in a greenhouse to allow the plants to grow. When each of Lolium multiflorum and Digitaria ciliaris grew to a shoot height ranging from 2 to 4 cm, and Zea mays for feed grew to a shoot height ranging from 20 to 30 cm, the emulsifiable concentrate mentioned above was diluted with water so as to have a specified amount of the active ingredient, and then sprayed onto the shoot parts by means of a small-sized sprayer at an application rate of 250 L of water per hectare.
(§8) Four weeks after the treatment, the weight of the shoot part of the alive plant in the untreated plot and the treated plot with respect to each of Lolium multiflorum, Digitaria ciliaris, and Zea mays for feed was measured. The herbicidal index was calculated according to the calculation expression described below.
(4) Calculation Expression for Herbicidal Index Herbicidal index (%)=[(Weight of the shoot part of the alive plant in the untreated plot−Weight of the shoot part of the alive plant in the treated plot)/(Weight of the shoot part of the alive plant in the untreated plot)]×100 […]

Another data set deals with Alopecurus myosuroides. Kind of data set: Test Example 3: spraying onto shoots, herbicidal index. The settings on record: sprayed onto shoots, three weeks after the treatment. The method, then:
as §1, §2, §3, §4, §5, §6

Data set [3] concerns Lolium multiflorum. The data set is described as above. To be noted: sprayed onto shoots, three weeks after the treatment. How it is done:
as §1, §2, §3, §4, §5, §6

For another data set, the system named is Setaria faberi. Described as above. The settings on record: sprayed onto shoots, three weeks after the treatment. The method, then:
as §1, §2, §3, §4, §5, §6

The subject of another data set is Abutilon theophrasti. The description is as above. To be noted: sprayed onto shoots, three weeks after the treatment. How it is done:
as §1, §2, §3, §4, §5, §6

The test system of data set [4] is Digitaria ciliaris. The data set is described as above. To be noted: sprayed onto shoots, three weeks after the treatment. The method, then: as §1, §2, §3, §4, §5, §6
The test system of another data set is Avena sativa. The description is as above. To be noted: sprayed onto shoots, three weeks after the treatment. How it is done:
as §1, §2, §3, §4, §5, §6

A further data set has as its system Amaranthus retroflexus. The data set is described as above. To be noted: sprayed onto shoots, three weeks after the treatment. The method, then: as §1, §2, §3, §4, §5, §6
Data set [5] relates to Lolium multiflorum. Briefly: Test Example 2: tests of treating shoots, herbicidal index. The settings on record: 63 g/ha, sprayed onto shoots, four weeks after the treatment. The method, then: as §1, §7, §8, §4
(§9) A diluted emulsifiable concentrate of the compound of A-2 was sprayed at a dosage of 63 g of the compound per hectare.
as §6

Data set [6] deals with Digitaria ciliaris. The description is as above. The settings on record: 63 g/ha, sprayed onto shoots, four weeks after the treatment. How it is done:
as §1, §7, §8, §4, §9, §6

Consider `Cn1ncc(-c2ccc(C(F)(F)F)cc2S(C)(=O)=O)c(O)c1=O` [(A)], for which the “Herbicidal index Zea mays for feed” value with Zea mays for feed [1] (63 g ai/ha) came to 40%; in the data set with Zea mays for feed [1] (250 g ai/ha), 90%; with Zea mays for feed [2], 50%. Moreover, the “Herbicidal index Alopecurus myosuroides” value in the data set on Alopecurus myosuroides (63 g ai/ha) turned out to be 50%; in the data set on Alopecurus myosuroides (250 g ai/ha), 90%. Moreover, the “Herbicidal index Lolium multiflorum” value in the data set on Lolium multiflorum [3] (63 g ai/ha) came to 40%; in the data set on Lolium multiflorum [3] (250 g ai/ha), 50%; with Lolium multiflorum [5], 40%. Further, the entries for the “Herbicidal index Setaria faberi” value in the data set with Setaria faberi (63 g ai/ha) and in the data set with Setaria faberi (250 g ai/ha) were 80% and 100%, respectively. For the same compound, the “Herbicidal index Abutilon theophrasti” value in the data set with Abutilon theophrasti (63 g ai/ha) was 80%; with Abutilon theophrasti (250 g ai/ha), 90%. In addition, the figures for the “Herbicidal index Digitaria ciliaris” value in the data set with Digitaria ciliaris [4] (63 g ai/ha), in the data set with Digitaria ciliaris [4] (250 g ai/ha) and in the data set on Digitaria ciliaris [6] were 80%, 90% and 80%, respectively. Further, the “Herbicidal index Avena sativa” value in the data set with Avena sativa (63 g ai/ha) was determined as 60%; with Avena sativa (250 g ai/ha) it was 80%. Moreover, the “Herbicidal index Amaranthus retroflexus” value with Amaranthus retroflexus (63 g ai/ha) and in the data set on Amaranthus retroflexus (250 g ai/ha) was 100% each time.

With `Cn1ncc(-c2ccc(C(F)(F)F)c3c2CCCS3(=O)=O)c(O)c1=O` [Compound A-2, 5-(1,1-dioxido-8-(trifluoromethyl)thiochroman-5-yl)-4-hydroxy-2-methylpyridazin-3(2H)-one], the “Herbicidal index Zea mays for feed” value with Zea mays for feed [1] (63 g ai/ha) worked out at 0%; with Zea mays for feed [1] (250 g ai/ha) it was 20%; in the data set on Zea mays for feed [2], 0%. Also, the entries for the “Herbicidal index Alopecurus myosuroides” value in the data set with Alopecurus myosuroides (63 g ai/ha) and with Alopecurus myosuroides (250 g ai/ha) were 80% and 100%, respectively. Besides, the “Herbicidal index Lolium multiflorum” value in the data set with Lolium multiflorum [3] (63 g ai/ha), in the data set on Lolium multiflorum [3] (250 g ai/ha) and in the data set on Lolium multiflorum [5] was 100% throughout. The “Herbicidal index Setaria faberi” value with Setaria faberi (63 g ai/ha) and in the data set on Setaria faberi (250 g ai/ha) was 100% each time. Moreover, the “Herbicidal index Abutilon theophrasti” value in the data set on Abutilon theophrasti (63 g ai/ha) and in the data set with Abutilon theophrasti (250 g ai/ha) was 100% in each case. Besides, the “Herbicidal index Digitaria ciliaris” value with Digitaria ciliaris [4] (63 g ai/ha) is recorded as 90%; with Digitaria ciliaris [4] (250 g ai/ha), 100%; with Digitaria ciliaris [6], 90%. Also, the “Herbicidal index Avena sativa” value with Avena sativa (63 g ai/ha) and in the data set on Avena sativa (250 g ai/ha) was 100% in each case. The “Herbicidal index Amaranthus retroflexus” value with Amaranthus retroflexus (63 g ai/ha) and in the data set with Amaranthus retroflexus (250 g ai/ha) was 100% in each case.

For the origin of these results see US12256736B2, “Pyridazine compound and herbicide” (Nippon Soda Co., Ltd., priority 2019, dated 2025).
